Results published in US20250051391A1, “PEPTIDE INHIBITORS AND METHODS FOR INHIBITING PROTEIN AGGREGATION IN NEURONS AND NEURODEGENERATIVE DISEASES” (THE GOVERNING COUNCIL OF THE UNIVERSITY OF TORONTO, priority 2021, published 2025).
Ends that are not written are not given here.

Columns and labels:
[1] = system: C. elegans PDE dopaminergic neurons; assay: C. elegans neurite length assay (A30P a-syn); format: in vivo; conditions: A30P human a-syn; RFP-tagged peptide version based on the nematode sequence of CHMP2B
Protocol: C. elegans strains were grown and maintained under standard conditions at 22-23° (4). BZ555 [dat-1p::gfp] was obtained from the C. elegans Genetics Center (CGC; University of Minnesota, St Paul, MN, USA), TWH1 ([dat-1p::a-syn(A30P), ges-1p::DsRed]; [dat-1p::gfp]) was obtained by crossing BZ555 with A30P a-syn transgenic animals (kindly provided by Dr. Takeshi Iwatsubo, University of Tokyo) (5).
The peptide construct (pPD97.78_osm-6p_TagRFP_wpeptide) was obtained by subcloning the following fragments into NheI and SpeI sites of pPD97.78 (A. Fire): NheI-AgeI […] fragment (2.4 kb) obtained by PCR using primer set 5′-[…]-3′ (SEQ ID NO: 44) and 5′-[…]-3′ (SEQ ID NO: 45) and N2 genomic DNA as a template, AgeI-EcoRI TagRFP fragment obtained by PCR using primer set 5′-gttgaccggt[…]-3′ (SEQ ID NO: 46) and 5′-ggcagaattcga[…]-3′ (SEQ ID NO: 47), EcoRI-SmaI peptide ([…] (SEQ ID NO: 48)) fragment digested from CMV_[…]_worm, SmaI-SpeI unc-54 3′-UTR fragment digested from pPD95.75 (Fire vector). […]
Each plasmid (40 ng/μl) was injected with a co-injection marker, sur-5p::mCherry into TWH1. The animals carrying the extrachromosomal arrays were transferred to new plates, and their progenies were analyzed at the adult stage under a widefield microscope (Zeiss AxioObserver). […]

[2] = system: HEK293 cells overexpressing A53T a-syn; assay: Cytotoxicity screen of lentiviral 7-mer peptide library, Alpha syn A53T cells under MG132; format: cell-based, human
From the text: A screening system to discover candidate peptides to perturb endogenous PPIs based on libraries of short linear interaction motifs that mediate a large fraction (˜30%) of human PPIs (10-12) was recently developed. Here, a lentiviral library of 50,549 7-mer peptide motifs (13) on a green fluorescent protein (GFP) scaffold (FIG. 1A) was used. Cells in a pooled format were infected and the amino acid sequence of each peptide served as its own barcode. By using a low multiplicity of infection followed by puromycin selection, each infected cell expressed one unique GFP-peptide. Peptides that reduced a-syn-mediated cytotoxicity or a-syn oligomers in parallel (FIG. 1A), were screened for.
To cause cytotoxicity relevant to PD, proteostatic stress in HEK293 cells was induced by inhibiting the proteasome with MG132 and inducing the overexpression of human a-syn (WT) from idiopathic PD in one screen and the more toxic A53T mutant from familial PD in a second screen. The combination of a-syn overexpression and pharmacological proteasome inhibition led to death of most cells, with only those that expressed a protective peptide surviving. By extracting genomic DNA from the surviving cells and amplifying the peptide coding sequences, the protective peptides (FIG. 1A) were identified.
PCR primers that included the Illumina adaptor sequences were used to amplify peptide coding sequences recovered from selection and cell sorting. Results were demultiplexed, and peptide counts were tallied. After demultiplexing, only reads with an average quality Phred score of >30 were selected, and frequencies were calculated. Finally, the reads were then normalized to the total number of peptides read for that sample population, and a scalar factor was applied. In parallel, ˜25 individual colonies were Sanger sequenced to compare to the NGS data.
Lentiviruses were made in a 15 cm dish format by transfecting packaging cells (293T) with a three-plasmid system as previously described. Viral transduction of HEK293T cells, tet-off split luciferase a-syn cells, tet-off parent cells, and SH-SY5Y cells were performed with a multiplicity of infection of 0.3 (MOI=0.3). Infected cells were selected in puromycin-containing medium to eliminate uninfected cells and three aliquots of cells were collected for sampling of the initial (TO) cell population. Cells were treated with MG132 at concentrations of 0 μM, 10 μM, 25 μM or 50 μM. For the cell viability screen, surviving cells were collected and gDNA was extracted for identification of peptide inhibitors of cell toxicity. For the inhibition of a-syn aggregation screen, split YFP-a-syn constructs were transfected following stable expression of the peptides. Cells were sorted based on their GFP fluorescence intensities with a FACSVantage SE cell sorter (BD Bioscience).
Genomic DNA (gDNA) from peptide expressing cells at different time-points was extracted using QIAamp DNA Blood Mini Kit. PCR amplifications of peptides from gDNA in parallel with the lentiviral plasmid library (naïve library) were performed using indexed Illumina PCR primers to incorporate both the Illumina adapter sequences and indexing sequences. Each 50 μl reaction contained 3.2 μg of template, 2×PCR buffer, 2× enhancer solution, 300 μM each dNTP, 900 nM each of Adapter A (5′-[…]-[…]-3′) (SEQ ID NO: 42) and Adapter B (5′-[…]-[…]-3′) (SEQ ID NO: 43), 1 mM MgSO4, 3.75 units of Platinum Pfx polymerase, and water to 50 μl. The PCR reaction was performed by denaturing at 94° C. for 5 minutes, followed by cycling (94° C. for 30 seconds, 65° C. for 30 seconds, 68° C. for 30 seconds)×28 cycles, 68° C. for 5 minutes, then cooling to 4° C. The resulting 244 bp product was purified by electrophoresis in 2% agarose followed by gel extraction. Peptide libraries were quantified using Quant-It assay (Invitrogen) and pooled. […]

| Substance | neurite shortening of PDE dopaminergic neurons [1] | Slope Norm Reads [2] | Reads 0 uM MG132 ([2]; normalized Illumina peptide counts, 0 uM MG132) | Reads 10 UM MG132 ([2]; normalized Illumina peptide counts, 10 µM MG132) | Reads 25 UM MG132 ([2]; normalized Illumina peptide counts, 25 µM MG132) | Reads 50 UM MG132 ([2]; normalized Illumina peptide counts, 50 µM MG132) |
| --- | --- | --- | --- | --- | --- | --- |
| DEEIERQLKALG [PDpep1.3] | partially rescued | – | – | – | – | – |
| IPIQLKA [PDpep1, top hit of all screens; maps to CHMP2B residues 203-209] | – | 40.54 | 168 | 20 | 3859 | 13308 |
